In ChEMBL document CHEMBL5108027, “An unanticipated discovery of novel naphthalimidopropanediols as potential broad-spectrum antibacterial members” (Eur J Med Chem, 2022):
In brackets after ≈: the same amount, converted by molar mass. Activity calls are given as the source filed them. The rule behind the calls is not given here.

How the values were obtained:
Pseudomonas aeruginosa [1] = assay: Antibacterial activity against Pseudomonas aeruginosa assessed as reduction in metabolic activity at 1 to 8 times MIC measured after 6 hrs by Alamar blue assay; assay type: functional, organism-based
Pseudomonas aeruginosa [2] = assay: Antibiofilm activity in Pseudomonas aeruginosa at 1 to 8 times MIC measured by Alamar blue assay; assay type: functional, organism-based
[3] = Hemolytic activity in human RBC measured after 1 hr; assay type: toxicity, cell-based, Erythrocyte; conditions: human red blood cells (erythrocytes)
Staphylococcus aureus [4] = assay: Antibacterial activity against Staphylococcus aureus ATCC 29213 measured by Muller-Hinton broth based microdilution assay; assay type: functional
Pseudomonas aeruginosa [5] = assay: Induction of inner membrane permeabilization in Pseudomonas aeruginosa by measuring increase in fluorescence intensity at 1 to 8 times MIC by calcein-AM/PI staining based fluorescence analysis; assay type: functional, organism-based
[6] = Hemolytic activity in human RBC assessed as hemolytic rate at 2 to 512 ug/ml and measured after 1 hr; assay type: toxicity, cell-based, Erythrocyte; conditions: human red blood cells (erythrocytes), at 2 to 512 µg/mL, dose 2-512 µg/ml, read-out: Activity
Klebsiella pneumoniae = assay: Antibacterial activity against Klebsiella pneumoniae measured by Muller-Hinton broth based microdilution assay; assay type: functional
Pseudomonas aeruginosa [7] = assay: Antibacterial activity against Pseudomonas aeruginosa assessed as reduction in LDH activity at 1 to 8 times MIC measured after 6 hrs by microplate reader method; assay type: functional; parameters: scale not given: the % may be the effect or the level left
Enterococcus faecalis = assay: Antibacterial activity against Enterococcus faecalis measured by Muller-Hinton broth based microdilution assay; assay type: functional
Escherichia coli [8] = assay: Antibacterial activity against Escherichia coli measured by Muller-Hinton broth based microdilution assay; assay type: functional
Pseudomonas aeruginosa [9] = assay: Induction of oxidative stress in Pseudomonas aeruginosa assessed as increase in intracellular ROS level at 1 to 8 times MIC measured after 6 hrs by DCFH-DA staining method; assay type: functional, organism-based
Pseudomonas aeruginosa [10] = assay: Inhibition of biofilm formation in Pseudomonas aeruginosa at 1 to 8 times MIC measured after 24 hrs by crystal violet staining method; assay type: functional, organism-based
Pseudomonas aeruginosa [11] = assay: Induction of outer membrane permeabilization in Pseudomonas aeruginosa preincubated for 30 mins at 1 to 8 times MIC measured by NPN fluorescent dye based assay; assay type: functional, organism-based
L929 = assay: Cytotoxicity against mouse L929 cells assessed as effect on cell growth at 0.25 to 0.5 ug/ml incubated for 24 hrs by MTT assay; assay type: toxicity, cell-based; conditions: l929, 24 h, dose 0.25-0.5 µg/ml
Pseudomonas aeruginosa [12] = assay: Inhibition of bacterial growth of Pseudomonas aeruginosa at 1 to 2 times MIC; assay type: functional
Escherichia coli [13] = assay: Antibacterial activity against Escherichia coli ATCC 25922 measured by Muller-Hinton broth based microdilution assay; assay type: functional
Pseudomonas aeruginosa [14] = assay: Disruption of membrane integrity in Pseudomonas aeruginosa assessed as increase in protein leakage by measuring increase in absorbance 1 to 8 times MIC measured for 6 hrs by Bradford assay; assay type: functional, organism-based
Pseudomonas aeruginosa [15] = assay: Bactericidal activity against Pseudomonas aeruginosa assessed as reduction in number of colonies at 0.5 to 2 times MIC measured within 6 hrs by time-kill assay; assay type: functional, organism-based
Pseudomonas aeruginosa [16] = assay: Disruption of membrane integrity in Pseudomonas aeruginosa at 8 times MIC by calcein-AM/PI staining based fluorescence analysis; assay type: functional, organism-based
Pseudomonas aeruginosa [17] = assay: Antibacterial activity against Pseudomonas aeruginosa measured by Muller-Hinton broth based microdilution assay; assay type: functional
Pseudomonas aeruginosa [18] = assay: Disruption of membrane integrity in Pseudomonas aeruginosa assessed as increase in nucleic acid leakage by measuring increase in absorbance 1 to 8 times MIC measured for 6 hrs by spectrophotometry; assay type: functional, organism-based
Acinetobacter baumannii = assay: Antibacterial activity against Acinetobacter baumannii measured by Muller-Hinton broth based microdilution assay; assay type: functional
Staphylococcus aureus [19] = assay: Antibacterial activity against Staphylococcus aureus ATCC 25923 measured by Muller-Hinton broth based microdilution assay; assay type: functional
Staphylococcus aureus [20] = assay: Antibacterial activity against methicillin-resistant Staphylococcus aureus N315 measured by Muller-Hinton broth based microdilution assay; assay type: functional
Pseudomonas aeruginosa [21] = assay: Antibacterial activity against Pseudomonas aeruginosa measured after 16 passages by resistance development assay; assay type: functional, organism-based
[22] = Selectivity ratio of HC50 for hemolytic activity in human RBC to MIC for antibacterial activity against Pseudomonas aeruginosa; assay type: toxicity; conditions: human red blood cells (erythrocytes)
Pseudomonas aeruginosa [23] = assay: Induction of oxidative stress in Pseudomonas aeruginosa assessed as decrease in GSH activity at 1 to 8 times MIC measured after 6 hrs by Ellman's assay; assay type: functional, organism-based
Pseudomonas aeruginosa [24] = assay: Induction of membrane depolarization in Pseudomonas aeruginosa at 0.5 to 2 times MIC measured upto 1 hr by DiSC35 dye-based fluorescence assay; assay type: functional, organism-based
Pseudomonas aeruginosa [25] = assay: Antibacterial activity against Pseudomonas aeruginosa ATCC 27853 measured by Muller-Hinton broth based microdilution assay; assay type: functional
Staphylococcus aureus [26] = assay: Antibacterial activity against Staphylococcus aureus measured by Muller-Hinton broth based microdilution assay; assay type: functional

| SMILES | Activity (Pseudomonas aeruginosa [1]) | Activity (Pseudomonas aeruginosa [2]) | HC50 at 1 h [3] | MIC (Staphylococcus aureus [4]) | Activity (Pseudomonas aeruginosa [5]) | hemolysis at 1 h [6] | MIC (Klebsiella pneumoniae) | Activity (Pseudomonas aeruginosa [7]) | MIC (Enterococcus faecalis) | MIC (Escherichia coli [8]) | Activity (Pseudomonas aeruginosa [9]) | inhibition (Pseudomonas aeruginosa [10]) | Activity (Pseudomonas aeruginosa [11]) | Activity (L929) | inhibition (Pseudomonas aeruginosa [12]) | MIC (Escherichia coli [13]) | Activity (Pseudomonas aeruginosa [14]) | Activity (Pseudomonas aeruginosa [15]) | Activity (Pseudomonas aeruginosa [16]) | MIC (Pseudomonas aeruginosa [17]) | other results |
| --- | --- | --- | --- | --- | --- | --- | --- | --- | --- | --- | --- | --- | --- | --- | --- | --- | --- | --- | --- | --- | --- |
| O=C1c2cccc3c(N/N=C/c4ccc5ccccc5c4)ccc(c23)C(=O)N1C(CO)CO | Active | Active | > 1000 µg/mL | 128 µg/mL (≈ 291 µM) | Active | < 5% | 32 µg/mL (≈ 72.8 µM) | 70% | 64 µg/mL (≈ 146 µM) | 16 µg/mL (≈ 36.4 µM) | Active | Active | Active | Non-Toxic | Active | 32 µg/mL (≈ 72.8 µM) | Active | Active | Active | 0.5 µg/mL (≈ 1.14 µM) | Activity (Pseudomonas aeruginosa [18]): Active; MIC (Acinetobacter baumannii): 64 µg/mL (≈ 146 µM); MIC (Staphylococcus aureus [19]): 64 µg/mL (≈ 146 µM); MIC (Staphylococcus aureus [20]): 64 µg/mL (≈ 146 µM); Activity (Pseudomonas aeruginosa [21]): Active; selectivity ratio [22]: > 2000; Activity (Pseudomonas aeruginosa [23]): Active; Activity (Pseudomonas aeruginosa [24]): Active; MIC (Pseudomonas aeruginosa [25]): 1 µg/mL (≈ 2.28 µM); MIC (Staphylococcus aureus [26]): 4 µg/mL (≈ 9.1 µM) |
| COc1ccc(/C=N/Nc2ccc3c4c(cccc24)C(=O)N(C(CO)CO)C3=O)cc1 | Active | Active | > 1000 µg/mL | 128 µg/mL (≈ 305 µM) | Active | < 5% | 32 µg/mL (≈ 76.3 µM) | 70% | 64 µg/mL (≈ 153 µM) | 16 µg/mL (≈ 38.1 µM) | Active | Active | Active | Non-Toxic | Active | 64 µg/mL (≈ 153 µM) | Active | Active | Active | 0.5 µg/mL (≈ 1.19 µM) | Activity (Pseudomonas aeruginosa [18]): Active; MIC (Acinetobacter baumannii): 64 µg/mL (≈ 153 µM); MIC (Staphylococcus aureus [19]): 64 µg/mL (≈ 153 µM); MIC (Staphylococcus aureus [20]): 64 µg/mL (≈ 153 µM); Activity (Pseudomonas aeruginosa [21]): Active; selectivity ratio [22]: > 2000; Activity (Pseudomonas aeruginosa [23]): Active; Activity (Pseudomonas aeruginosa [24]): Active; MIC (Pseudomonas aeruginosa [25]): 2 µg/mL (≈ 4.77 µM); MIC (Staphylococcus aureus [26]): 32 µg/mL (≈ 76.3 µM) |
